Source: US20120277161A1, “INHIBITION OF MULTIPLE CELL ACTIVATION PATHWAYS” (INTER-K PTY LIMITED, priority 2009, published 2012)
Blank lines part the entries; values can stand above or below the molecule they belong to.

Tests used:
[1] = system: A2780 ovarian cancer cell line; assay: Cell proliferation (MTT) assay, A2780 cells; assay type: cell-based, human; settings: drug alone; FIG. 6
Protocol: 6.1 Cell Proliferation (MTT) Assay Single cell suspensions of viable trypsinised cells were seeded into 96-well tissue culture plates at a density of 2×10^3 cells per well in a volume of 100 μl of a suitable culture media supplemented with heat inactivated foetal calf serum (FCS) (e.g., Dulbecco's Modified Eagles Medium (DMEM), with 10% v/v FCS, 1% L-glutamine, 2% (v/v) Hepes, and antibiotics). A set of triplicate wells was prepared for each concentration of the peptide dendrimer being tested. Additional sample wells containing untreated cells or media alone were set up in each treatment plate and processed in parallel as reference controls. […]
To prepare the MTT solution 100 mg of MTT (3-(4,5-dimethylthiazolyl-2)-2,5-diphenyltetrazolium bromide) (Cat #. M-128, Sigma, St Louis Mo.), is mixed with 20 ml of PBS at pH 7.4. […] After solubilisation of the salt crystals, a coloured product is produced the measurement of which allows quantitation of the proliferative activity of the cultured cells.
Appropriate concentrations of the kinase inhibitor were prepared by dilution of freshly prepared sterile 1 mM stock solutions into cell culture media to give a final well volume of 200 μl containing 10% v/v FCS. […] Plates were gently vortexed to complete solubilisation of crystalline material and absorbance was read at 550 nm using a microplate reader. […]

[2] = system: ADDP human ovarian carcinoma cell line; assay: Cell proliferation (MTT) assay, ADDP cells; assay type: cell-based
Protocol: 6.1 Cell Proliferation (MTT) Assay Single cell suspensions of viable trypsinised cells were seeded into 96-well tissue culture plates at a density of 2×10^3 cells per well in a volume of 100 μl of a suitable culture media supplemented with heat inactivated foetal calf serum (FCS) (e.g., Dulbecco's Modified Eagles Medium (DMEM), with 10% v/v FCS, 1% L-glutamine, 2% (v/v) Hepes, and antibiotics). A set of triplicate wells was prepared for each concentration of the peptide dendrimer being tested. Additional sample wells containing untreated cells or media alone were set up in each treatment plate and processed in parallel as reference controls. A zero-time plate of untreated cells and media-alone wells was simultaneously prepared and an MTT assay carried out on this plate at the time of addition of the kinase inhibitor (i.e., polypeptide or dendrimer) to treatment plates. All plates were cultured for 24 hours before addition of the test dendrimer.
To prepare the MTT solution 100 mg of MTT (3-(4,5-dimethylthiazolyl-2)-2,5-diphenyltetrazolium bromide) (Cat #. M-128, Sigma, St Louis Mo.), is mixed with 20 ml of PBS at pH 7.4. The resulting solution is filter sterilized (0.2 μM syringe filter) and stored at 4° C. protected from light until use. MTT substrate is cleaved in growing cells to yield a water insoluble salt. After solubilisation of the salt crystals, a coloured product is produced the measurement of which allows quantitation of the proliferative activity of the cultured cells.
Appropriate concentrations of the kinase inhibitor were prepared by dilution of freshly prepared sterile 1 mM stock solutions into cell culture media to give a final well volume of 200 μl containing 10% v/v FCS. The zero-plate was processed by addition of MTT at this time. Cell culture was continued for a further 24 or 48 hours before addition of 20 μl of MTT in PBS (5 mg/ml, 0.2 um filter sterilised). The MTT cell proliferation assay measures cell proliferation rate and, in instances where cell viability is compromised, the assay indicates a comparative reduction in cell viability. After a 3 hour incubation in the presence of MTT (5% CO2 in air at 37° C.), plates were centrifuged at 450 g for 5 minutes, supernatant was removed by gentle suction and precipitated tetrazolium salt resuspended into 150 μl DMSO:glycine (0.1M glycine, 0.1M NaCl pH 10.5) (6:1 v/v) solution. Plates were gently vortexed to complete solubilisation of crystalline material and absorbance was read at 550 nm using a microplate reader. Sample data were processed to determine the comparative growth of treated samples relative to untreated controls.

[3] = system: cell adhesion mediated ERK activation in HT29 human colon cancer cells; assay: ERK cell adhesion assay (fibronectin), phospho-ERK1/2 ELISA; assay type: cell-based
Protocol: Experimental wells were coated with 100 μL of fibronectin (1-10 μg/mL, Sigma-Aldrich) or 100 μL of 1% BSA (negative control, Sigma-Aldrich). Plates were then incubated at 37° C. for 1 hour before being washed with 100 μL PBS. 100 μL of 1% BSA was then added to each well for 30 minutes to block non-specific binding (37°). HT29 human colon cancer cells were harvested using 0.5% trypsin-EDTA and 50,000 cells were plated into each empty well in 100 μL of serum free media (SFM; DMEM supplemented with 1% (v/v) L-glutamine and 2% (v/v) 1M HEPES solution). 100 μL of SFM with or without PP2 (final concentration 5 μM, specific c-Src inhibitor, Sigma-Aldrich), was then added to each well. Plates were centrifuged at 200 rpm for 5 minutes and then incubated at 37° C. for one hour. Phospho-ERK1/2 levels in the cell groups was evaluated by ELISA (Active Motif assay kit, Australian Biosearch) essentially as described in Example 7.1.
A study was undertaken to evaluate the effect of the PI3K inhibitor Wortmannin (0.25 μM final concentration) on cell adhesion mediated ERK activation in HT29 human colon cancer cells. Phospho-ERK1/2 levels were measured as an indicator of ERK activation substantially as described in Example 7.1. Increasing levels of phospho-ERK1/2 in HT29 cells correlated with increasing levels of fibronectin in the absence of serum stimulation of the HT29 cells.

[4] = biological target: MEK1 (h) (Homo sapiens, UniProt Q02750); assay: MEK1 kinase activity assay; assay type: biochemical; settings: 50 μM
Protocol: The reaction is initiated by the addition of the MgATP. After incubation for 40 minutes at room temperature, 5 μL of this incubation mix is used to initiate an ERK2 (m) assay.

[5] = biological target: human Lyn (Homo sapiens, UniProt P07948); assay: Lyn kinase activity assay; assay type: biochemical; settings: peptide 50 μM
human Lyn, sequence (P07948 whole entry): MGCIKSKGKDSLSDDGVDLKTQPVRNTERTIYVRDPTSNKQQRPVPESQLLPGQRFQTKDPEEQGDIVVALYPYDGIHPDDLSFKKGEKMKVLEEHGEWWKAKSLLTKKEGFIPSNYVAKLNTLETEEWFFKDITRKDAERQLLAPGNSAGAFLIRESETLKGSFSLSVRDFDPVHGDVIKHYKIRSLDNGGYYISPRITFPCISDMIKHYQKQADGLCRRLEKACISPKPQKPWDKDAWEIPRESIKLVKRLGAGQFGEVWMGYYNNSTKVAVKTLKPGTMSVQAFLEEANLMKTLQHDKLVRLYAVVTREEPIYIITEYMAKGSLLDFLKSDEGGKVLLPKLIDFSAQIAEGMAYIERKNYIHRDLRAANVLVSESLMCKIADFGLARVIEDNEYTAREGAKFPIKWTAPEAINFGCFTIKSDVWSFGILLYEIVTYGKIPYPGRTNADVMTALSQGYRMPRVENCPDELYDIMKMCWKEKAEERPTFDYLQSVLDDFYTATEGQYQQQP
Protocol: In a final reaction volume of 25 μl, human Lyn is incubated with the RSKAKNPLYR peptide (SEQ ID No: 6) in 50 mM Tris buffer pH 7.5, 0.1 mM EGTA, 0.1 mM Na3VO4, 1% mercaptoethanol, 0.1 mg/ml poly(Glu,Tyr) 4:1, 10 mM Mg acetate and [γ-33P-ATP] (specific activity approx. 500 cpm/pmol). The reaction was initiated by the addition of the MgATP mix, incubated for 40 minutes at room temperature prior to being stopped and kinase activity assessed by scintillation counting as per the protocol described for c-Src described in Example 1.1.

[6] = biological target: human Yes (Homo sapiens, UniProt P07947); assay: Yes kinase activity assay; assay type: biochemical; settings: peptide 50 μM
human Yes, sequence (P07947 whole entry): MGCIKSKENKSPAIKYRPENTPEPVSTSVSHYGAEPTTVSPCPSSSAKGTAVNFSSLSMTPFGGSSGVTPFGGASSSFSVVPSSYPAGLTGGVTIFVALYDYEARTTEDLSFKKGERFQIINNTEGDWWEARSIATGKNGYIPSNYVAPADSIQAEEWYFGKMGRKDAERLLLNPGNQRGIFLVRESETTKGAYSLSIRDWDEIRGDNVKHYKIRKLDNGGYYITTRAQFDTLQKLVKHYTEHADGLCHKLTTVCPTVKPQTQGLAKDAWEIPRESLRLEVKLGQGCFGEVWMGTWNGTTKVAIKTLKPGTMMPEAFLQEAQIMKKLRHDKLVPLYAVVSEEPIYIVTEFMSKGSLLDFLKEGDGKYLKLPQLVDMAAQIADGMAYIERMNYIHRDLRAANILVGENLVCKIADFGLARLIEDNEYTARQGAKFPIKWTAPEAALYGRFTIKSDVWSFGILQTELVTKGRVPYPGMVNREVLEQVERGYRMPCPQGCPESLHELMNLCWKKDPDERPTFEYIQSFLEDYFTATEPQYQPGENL
Protocol: In a final reaction volume of 25 μl, human Yes is incubated with the RSKAKNPLYR peptide (SEQ ID No: 6) in 8 mM MOPS buffer pH 7.0, 0.2 mM EDTA, 0.1 mg/ml poly(Glu,Tyr) 4:1, 10 mM Mg acetate and [γ-33P-ATP] (specific activity approx. 500 cpm/pmol). The reaction is initiated by the addition of the MgATP mix, incubated for 40 minutes at room temperature prior to being stopped and kinase activity assessed by scintillation counting again as per the protocol described for c-Src in Example 1.1.

[7] = biological target: c-SRC (h) (Homo sapiens, UniProt P12931); assay: c-Src kinase activity assay (cell-free, 33P-ATP); assay type: biochemical; settings: peptide 50 μM, relative to control
Protocol: In a final reaction volume of 25 μL, c-SRC (h) (5-10 mU) is incubated with 8 mM MOPS pH 7.0, 0.2 mM EDTA, 250 μM KVEKIGEGTYGVVYK (SEQ ID No. 19) (Cdc2 peptide), 10 mM MgAcetate and [γ-33P-ATP] (specific activity approx. 500 cpm/pmol, concentration as required). The reaction is initiated by the addition of the MgATP mix. After incubation for 40 minutes at room temperature, the reaction is stopped by the addition of 5 μL of a 3% phosphoric acid solution. 10 μL of the reaction is then spotted onto a P30 filtermat and washed three times for 5 minutes in 75 mM phosphoric acid and once in methanol prior to drying and scintillation counting.

Molecule: N.N.[Cl][Pt][Cl] [cisplatin, cis-diamminedichloroplatinum (II), reference compound]
inhibition of growth of A2780 cell line [1]: highly susceptible
inhibition of growth of ADDP cell line ([2]; drug alone, FIG. 6): substantially less inhibition of growth

Molecule: COC[C@H]1OC(=O)c2coc3c2[C@@]1(C)C1=C(C3=O)[C@@H]2CCC(=O)[C@@]2(C)C[C@H]1OC(C)=O [Wortmannin]
reduction of cell adhesion mediated ERK activation ([3]; 0.25 μM, HT29 cells): about 55%

inhibition of MEK1 [4]: negligible inhibition
inhibition of Lyn activity [5]: only relatively low level inhibition
inhibition of Yes activity [6]: only relatively low level inhibition
% Inhibition of control, c-Src tyrosine kinase activity [7]: approx. 57%
Molecule: RSKAKNPLYR [Peptide 1]
effect in combination with cisplatin, ADDP cells ([2]; 20 μM peptide, 72 hour culture, data not shown): synergistic effect

Molecule: CC(C)(C)n1nc(-c2ccc(Cl)cc2)c2c(N)ncnc21 [PP2]
phospho-ERK levels, HT29 cells on fibronectin ([3]; 5 μM, no serum stimulation, results not shown): markedly reduced
